Assay results published in patent US12150927B2, “Use of cannabidiolic acid in the treatment of autism spectrum disorder and associated disorders” (GW Research Limited, priority 2016, dated 2024).
Where “and” joins values, the source holds several entries; their conditions need not be identical. Equal entries are not always repeated.

Assays:
Fmr1 KO mice = experiment: Novel object recognition task, mouse model of fragile X syndrome; format: in vivo
Description: Fmr1 KO mice and wild type mice were obtained and housed four per cage in a temperature of 21° C.±1° C. and humidity of 55%±10% controlled environment. Food and water were available ad libitum. All experiments were performed during the light phase of a 12 hour light/dark cycle (08:00 to 20:00). Animals were handled for one week before the start of experiments. All behavioural tests were performed by researchers blind to the different experimental groups.
On day one mice were habituated for 10 minutes to the empty V-maze in which the task was to be performed. On the second day the mice went back to the maze for 10 minutes which contained two identical objects at the end of each corridor in the V-maze.
The following day the mice were placed again in the same maze for a further 10 minutes but one of the familiar objects was replaced for a novel object. The total time spent exploring the novel and familiar object was recorded. A discrimination index was calculated as the difference between the time spent exploring the novel and familiar object divided by the total time exploring the two objects. A high discrimination index (0.3-0.5) is considered to reflect memory retention for the familiar object.
Adult mice […] were treated either acutely with one dose of 20 mg/kg CBDA on PND 21 for 7 consecutive days. Mice were evaluated in the novel object recognition task after the first and sixth day of CBDA administration.

MeCP2 KO mice [1] = experiment: Symptom scoring, mouse model of Rett syndrome; format: in vivo; conditions: chronic CBDA 2 and 20 mg/kg i.p., FIG. 7-9
Description: (§1) CBDA was administered daily at the dose of 2 or 20 mg/kg i.p. starting from PND 28 and the following signs were scored every other day: hindlimb clasping (indication of motor imbalance), tremor, gait (measure of coordination), breathing, mobility and general condition.
(§2) The CBDA was dissolved in ethanol, cremophor and saline (1:1:18). Starting from PND 28, mice received a daily intraperitoneal injection of CBDA (or vehicle) at the dose of 2 or 20 mg/kg. Animals were then scored every other day to evaluate the effect of CBDA treatment on motor symptoms (hindlimb clasping, gait, mobility) as well as neurological signs and general conditions (breathing abnormalities, tremors and general condition) present in MeCP2 knockout (KO) mice.
Each of the six symptoms was scored from 0 to 2 (0 corresponds to the symptom being absent or the same as in the wild type (WT) animal; 1 when the symptom was present; 2 when the symptom was severe).
Mobility: the mouse is observed when placed on bench, then when handled gently. 0=as WT. 1=reduced movement when compared with WT: extended freezing period when first placed on bench and longer periods spent immobile. 2=no spontaneous movement when placed on the bench; mouse can move in response to a gentle prod or a food pellet placed nearby.
Gait: 0=as WT. […]

MeCP2 KO mice [2] = experiment: Body weight gain, mouse model of Rett syndrome; format: in vivo; conditions: CBDA 2 and 20 mg/kg i.p. daily, PND 28-66, FIG. 5
Description: as §1, §2

animal models of seizure = conditions: co-pending UK patent application GB1514079.1; cited from earlier work
MeCP2 KO mice [3] = experiment: Novel Object Recognition (NOR) test, short- and long-term memory, mouse model of Rett syndrome; format: in vivo
Description: Furthermore, the efficacy of CBDA in reverting/attenuating the short- and long-term memory deficits present in these mice was evaluated. The Novel Object Recognition (NOR) test was performed before the starting of the treatment Post Natal Day 28 (PND 28), at PND 41 when the first motor symptoms appear and at PND 56 and 66 when the disease is fully manifested.
At PND 28, 41, 56 and 66 the effect of CBDA on short- and long-term memory deficits was investigated through the Novel Object Recognition (NOR) test.
The experiment was performed as previously described (Zamberletti E. et al. 2014 and Kruk-Stomka M. et al. 2014).
The experimental apparatus used for the Novel Object Recognition test was an open-field box (43×43×32 cm) made of Plexiglas, placed in a dimly illuminated room. Animals performed each test individually.
Briefly, each animal was placed in the arena and allowed to explore two identical previously unseen objects for 10 minutes (familiarization phase). After an inter-trial interval of 30 minutes and 24 hours one of the two familiar objects was replaced by a novel, previously unseen object and mice were returned to the arena for the 10-minute test phase.
During the test phase the time spent exploring the familiar object (Ef) and the new object (En) was recorded separately by two observers blind to the groups and the discrimination index was calculated as follows: [(En−Ef)/(En+Ef)]×100.

Ube3am-/p+ (AS) mice = experiment: Rotarod test, mouse model of Angelman syndrome; format: in vivo; conditions: chronic treatment (30 days) CBDA 20 mg/kg i.p., 10 weeks, vs AS vehicle, FIG. 13
Description: Heterozygous mice with maternal deficiency of Ube3A (Ube3am−/p+) and wild type (Ube3am+/p+) were purchased from The Jackson Laboratory (Jackson code: B6.129S7-Ube3a tm1Alb/J) and maintained in a C57BL/6 background.
Drugs were dissolved in 1:1:18 ethanol:cremophor:0.9% saline, for intraperitoneal (i.p.) administration. […] CBDA was administered at 20 mg/kg.
Rotarod: The rotarod test assesses balance and motor coordination of mice. Mice have been measured for the time (in seconds) of equilibrium before falling on a rotary cylinder by a magnet that, activated from the fall of the mouse on the plate, allows to record the time of permanence on the cylinder. […] The animals were analysed by 2 separate tests at 1-h interval in the same day.

MeCP2 KO and WT mice = experiment: Survival, mouse model of Rett syndrome; format: in vivo
Description: as §1, §2

C=C(C)[C@@H]1CCC(C)=C[C@H]1c1c(O)cc(CCCCC)c(C(=O)O)c1O [CBDA, Cannabidiolic acid]
discrimination index level (Fmr1 KO mice; Fmr1 KO mice treated with CBDA over 7 days): 0.32
discrimination index (Fmr1 KO mice; acute treatment, CBDA 20 mg/kg, Fmr1 KO mice vs KO vehicle, FIG. 3): increase the discrimination index slightly over that of the knockout mice administered vehicle, however this was not significant
discrimination index (effect vs vehicle) (Fmr1 KO mice; chronic treatment, once daily for 7 days, CBDA 20 mg/kg, Fmr1 KO mice, FIG. 4): statistically significant increase in the discrimination index
total symptom score (tremor, breathing, hindlimb clasping, gait, general condition, mobility) (MeCP2 KO mice [1]): partially improve these symptoms and decrease the total symptom score, however these data were not significant
body weight gain (MeCP2 KO mice [2]): did not prevent the reduction in body weight
efficacy in animal models of seizure (animal models of seizure): effective in animal models of seizure
short-term memory in the NOR test (MeCP2 KO mice [3]; MeCP2 KO mice, CBDA 2 and 20 mg/kg i.p., each time point (PND 41, 56, 66), 30 min inter-trial interval, FIG. 10): reverted the cognitive impairment in short-term memory
long-term memory in the NOR test (MeCP2 KO mice [3]; MeCP2 KO mice, both doses of CBDA (2 and 20 mg/kg i.p.), 24 hours inter-trial interval, FIG. 11): counteract the cognitive impairment in long-term memory
short-term recognition memory in the NOR test (MeCP2 KO mice [3]; WT littermates, CBDA 2 and 20 mg/kg i.p., FIG. 10): without affecting recognition memory
long-term recognition memory in the NOR test (MeCP2 KO mice [3]; WT littermates, both doses of CBDA, FIG. 11): without affecting recognition memory
latency to fall (rotarod) (Ube3am-/p+ (AS) mice): significantly reduced latency to fall
survival rate (MeCP2 KO and WT mice; MeCP2 KO mice, chronic CBDA 20 mg/kg i.p., PND 67 (vehicle KO 57.14%), FIG. 6): 85.14% and 85%
lethality (MeCP2 KO and WT mice; WT mice treated with CBDA (2 and 20 mg/kg i.p. daily)): No lethality
